{
  "source": "paper PMC5146859",
  "about": "“Phase 1/2 study of pacritinib, a next generation JAK2/FLT3 inhibitor, in myelofibrosis or other myeloid malignancies” (Journal of Hematology & Oncology, 2016)",
  "system": "patients with advanced myeloid malignancies (MF, AML)",
  "assay": "Phase 1 clinical benefit rate (IWG criteria)",
  "type": "in vivo, human",
  "method": "At screening/baseline, patients underwent a medical history, physical examination, vital sign assessment, ECOG PS assessment, electrocardiogram, and assessment of hematologic parameters and blood chemistry. Hematology/blood chemistry, physical examinations, and vital sign assessments were performed throughout treatment. Toxicity was assessed using the National Cancer Institute Common Terminology Criteria for Adverse Events (NCIC-CTCAE), version 3.0, with relationship to treatment assigned by the investigator and were recorded from the first dose of pacritinib until 30 days after the last dose. Bone marrow biopsy and/or aspirate samples were drawn at baseline, on day 1 of cycle 4 and cycle 10, as clinically indicated, and at the termination visit. Disease response and progression were determined using the relevant International Working Group (IWG) criteria. The primary objective of phase 1 was to establish the MTD of pacritinib in patients with advanced myeloid malignancies, defined as the highest dose level at which no more than one out of six patients in the cohort experienced a DLT during cycle 1 ([…]) of therapy. […] Secondary objectives in phase 1 of the study included safety and PK analysis. Clinical benefit rate was assessed as an exploratory endpoint, defined as the proportion of patients who experienced a complete response, partial response, clinical improvement, or stable disease (SD) during the study.",
  "data": [
    {"smiles": "C1=C/COCc2cc(ccc2OCCN2CCCC2)Nc2nccc(n2)-c2cccc(c2)COC/1", "note": "[pacritinib, 11-(2-pyrrolidin-1-yl-ethoxy)-14,19-dioxa-5,7,26-triaza-tetracyclo[19.3.1.1(2,6). 1(8,12)]heptacosa-1(25),2(26),3,5,8,10,12(27),16,21,23-decaene]", "values": [
      {"measurement": "Dose–response correlation of clinical benefit", "setting": "phase 1", "result": "No clear dose–response correlation was observed"},
      {"measurement": "Overall clinical benefit rate", "setting": "phase 1, n = 43", "result": 86.0, "unit": "%"},
      {"measurement": "Patients achieving clinical improvement", "setting": "phase 1, n = 43", "result": 13, "unit": "patients"},
      {"measurement": "Patients having stable disease", "setting": "phase 1, n = 43", "result": 24, "unit": "patients"},
      {"measurement": "Clinical benefit rate", "setting": "phase 1, patients with AML (3/7)", "result": 42.9, "unit": "%"},
      {"measurement": "Clinical benefit rate", "setting": "phase 1, patients with MF (34/36)", "result": 94.4, "unit": "%"}
    ]}
  ]
}
